Test results from paper PMC6387077, “Interaction of Halictine-Related Antimicrobial Peptides with Membrane Models” (International Journal of Molecular Sciences, 2019).

Legend:
Staphylococcus aureus = conditions: ref [19]; cited from earlier work
Text: Table 1 Amino acid sequences, physico-chemical and biological properties (µH is the hydrophobic moment, and H represents the mean hydrophobicity, calculated according to [27]), of the studied antibacterial HAL-1 peptides. Data were taken from ref. [19]. Point mutations with respect to the natural HAL-1 peptide are underlined. The Schiffer−Edmundson wheel projection of the HAL-1 and its analogs | column: Antimicrobial Activity MIC (µM) / S.^2

red blood cells = conditions: hemolytic activity against red blood cells; ref [19]; cited from earlier work
Text: Table 1 Amino acid sequences, physico-chemical and biological properties (µH is the hydrophobic moment, and H represents the mean hydrophobicity, calculated according to [27]), of the studied antibacterial HAL-1 peptides. Data were taken from ref. [19]. Point mutations with respect to the natural HAL-1 peptide are underlined. The Schiffer−Edmundson wheel projection of the HAL-1 and its analogs | column: Hemolytic LC50 (µM)

Bacillus subtilis = conditions: ref [19]; cited from earlier work
Text: Table 1 Amino acid sequences, physico-chemical and biological properties (µH is the hydrophobic moment, and H represents the mean hydrophobicity, calculated according to [27]), of the studied antibacterial HAL-1 peptides. Data were taken from ref. [19]. Point mutations with respect to the natural HAL-1 peptide are underlined. The Schiffer−Edmundson wheel projection of the HAL-1 and its analogs | column: Antimicrobial Activity MIC (µM) / B.^1

Escherichia coli = conditions: ref [19]; cited from earlier work
Text: Table 1 Amino acid sequences, physico-chemical and biological properties (µH is the hydrophobic moment, and H represents the mean hydrophobicity, calculated according to [27]), of the studied antibacterial HAL-1 peptides. Data were taken from ref. [19]. Point mutations with respect to the natural HAL-1 peptide are underlined. The Schiffer−Edmundson wheel projection of the HAL-1 and its analogs | column: Antimicrobial Activity MIC (µM) / E.^3

Pseudomonas aeruginosa = conditions: ref [19]; cited from earlier work
Text: Table 1 Amino acid sequences, physico-chemical and biological properties (µH is the hydrophobic moment, and H represents the mean hydrophobicity, calculated according to [27]), of the studied antibacterial HAL-1 peptides. Data were taken from ref. [19]. Point mutations with respect to the natural HAL-1 peptide are underlined. The Schiffer−Edmundson wheel projection of the HAL-1 and its analogs | column: Antimicrobial Activity MIC (µM) / P.^4

[1] = Concentration dependence of ECD and VCD spectra (aggregation); type: physicochemical; conditions: aqueous solution, 100 mg/mL peptide, room temperature, ECD and VCD read-out
Text: In order to clarify the discrepancy between the results of the peptide conformational analyses obtained by ECD and IR, we have complemented our study by a measurement of concentration dependencies of ECD spectra of the HAL-1 peptides (Figure 9). […] In order to determine the peptide conformational change induced by its high concentration more specifically, we have performed measurements of VCD spectra of the peptides (Figure 10) using the highest peptide concentration studied by ECD (i.e., 100 mg/mL). VCD measurements supported the results of ECD analysis, confirming that at high peptide concentration, HAL-1 and its analogs HAL-1/6, HAL-1/10, and HAL-1/20 spontaneously form the α-helical structure, indicated by a negative/positive VCD couplet in the amide I region. On the contrary, the HAL-1/2 analog (Figure 10b) seems to undergo a distinct conformational change, forming highly organized β-sheet aggregates (β-sheet fibrils) characterized by an intense five-peak VCD signal with the (−/−/+/−/−) sign pattern in the amide I and II region. […]
Concentration dependence was measured for all the peptides at the given concentrations: 0.1, 10, and 100 mg/mL. […] The α-helical fraction was calculated using a two-state model. […]
VCD spectra were measured on a dual source and dual photo-elastic modulator [67] […]

In the case of “GKWSKILGKLIR [HAL-1/20, HAL-1 analog, Met2 and His9 substituted by Lys]”, the “Antimicrobial Activity MIC S.” value (Staphylococcus aureus) is given as 21.7 µM, the “Hemolytic LC50” value (red blood cells) is given as >200 µM and the “Antimicrobial Activity MIC B.” value (Bacillus subtilis) is given as 1.7 µM. For the same sequence, the “Antimicrobial Activity MIC E.” value (Escherichia coli) was 2.3 µM.

In the case of “GMWKKILGKLIR [HAL-1/10, HAL-1 analog, Ser4 and His9 substituted by Lys]”, the “Antimicrobial Activity MIC S.” value (Staphylococcus aureus) is given as 15.0 µM, the “Hemolytic LC50” value (red blood cells) is given as >200 µM and the “Antimicrobial Activity MIC P.” value (Pseudomonas aeruginosa) is given as 13.1 µM. For the same sequence, the “Antimicrobial Activity MIC B.” value (Bacillus subtilis) was 0.8 µM and the “Antimicrobial Activity MIC E.” value (Escherichia coli) was 2.3 µM.

In the case of “GMWSKILGHLIK [HAL-1/6, HAL-1 analog, Arg12 replaced by Lys]”, the “Antimicrobial Activity MIC S.” value (Staphylococcus aureus) is given as 15.8 µM, the “Hemolytic LC50” value (red blood cells) is given as 132 µM and the “Antimicrobial Activity MIC P.” value (Pseudomonas aeruginosa) is given as 65.0 µM. The “Antimicrobial Activity MIC B.” value (Bacillus subtilis) was 1.3 µM and the “Antimicrobial Activity MIC E.” value (Escherichia coli) was 7.2 µM.

In the case of GMWSKILGHLIR [HAL-1], the “Antimicrobial Activity MIC S.” value (Staphylococcus aureus) is listed as 7.7 µM, the “Hemolytic LC50” value (red blood cells) is listed as 82 µM and the “Antimicrobial Activity MIC P.” value (Pseudomonas aeruginosa) is listed as 45.0 µM. For the same sequence, the “Antimicrobial Activity MIC B.” value (Bacillus subtilis) was 0.8 µM and the “Antimicrobial Activity MIC E.” value (Escherichia coli) was 3.8 µM.

For “GMWSKILGPLIR [HAL-1/2, HAL-1 analog, His9 substituted by Pro]”, the “Aggregation at high peptide concentration” value [1] is listed as “form β-aggregates”, the “Antimicrobial Activity MIC S.” value (Staphylococcus aureus) is listed as >100 µM and the “Hemolytic LC50” value (red blood cells) is listed as >200 µM. The “Antimicrobial Activity MIC P.” value (Pseudomonas aeruginosa) was >100 µM, the “Antimicrobial Activity MIC B.” value (Bacillus subtilis) was 3.6 µM and the “Antimicrobial Activity MIC E.” value (Escherichia coli) was 30.0 µM.
